Like-named read-outs stand apart in the source and are kept apart here.
Legend:
Assay type in all cases: in vivo
[1] = test system: Puccinia recondita (Wheat); assay: Foliar fungal disease test on plants: Puccinia recondita (Wheat); settings: plants inoculated with Puccinia recondita 48 hours before treatment
[2] = test system: Plasmopara viticola (Vines); assay: Foliar fungal disease test on plants: Plasmopara viticola (Vines); settings: one or two days before inoculation
[3] = test system: Thanatephorus cucumeries (Rice); assay: Foliar fungal disease test on plants: Thanatephorus cucumeries (Rice); settings: one or two days before inoculation
Septoria nodorum (Wheat) = assay: Foliar fungal disease test on plants: Septoria nodorum (Wheat); settings: one or two days before inoculation
[4] = test system: Venturia inaequalis (Apples); assay: Foliar fungal disease test on plants: Venturia inaequalis (Apples); settings: one or two days before inoculation
[5] = test system: Pyricularia oryzae (Rice); settings: one or two days before inoculation
[6] = test system: Phytophthora infestans (Tomatoes); settings: one or two days before inoculation
[7] = test system: Erysiphe graminis tritici (Wheat); assay: Foliar fungal disease test on plants: Erysiphe graminis tritici (Wheat); settings: plants inoculated 24 hours before treatment
[8] = 100 ppm a.i. foliar spray or root drench
[9] = 100 ppm a.i. foliar spray or root drench (approx. 40 ppm in dry soil)

Row | SMILES | POCO (Percentage of Control) disease level, Puccinia recondita (Wheat) ([1]; 10 ppm foliar spray only) | POCO (Percentage of Control) disease level, Plasmopara viticola (Vines) ([2]; 10 ppm foliar spray only) | POCO (Percentage of Control) disease level, Thanatephorus cucumeries (Rice) ([3]; 10 ppm foliar spray only) | POCO (Percentage of Control) disease level, Septoria nodorum (Wheat) (Septoria nodorum (Wheat); 10 ppm foliar spray only) | POCO (Percentage of Control) disease level, Venturia inaequalis (Apples) ([4]; 10 ppm foliar spray only) | POCO (Percentage of Control) disease level, Pyricularia oryzae (Rice) ([5]; 10 ppm foliar spray only) | POCO (Percentage of Control) disease level, Phytophthora infestans (Tomatoes) ([6]; 10 ppm foliar spray only) | POCO (Percentage of Control) disease level, Erysiphe graminis tritici (Wheat) ([7]; 10 ppm foliar spray only) | POCO (Percentage of Control) disease level, Puccinia recondita (Wheat) [1, 8] | POCO (Percentage of Control) disease level, Plasmopara viticola (Vines) [2, 9] | POCO (Percentage of Control) disease level, Thanatephorus cucumeries (Rice) [3, 9] | POCO (Percentage of Control) disease level, Septoria nodorum (Wheat) (Septoria nodorum (Wheat); [9]) | POCO (Percentage of Control) disease level, Venturia inaequalis (Apples) [4, 9] | POCO (Percentage of Control) disease level, Pyricularia oryzae (Rice) [5, 9] | POCO (Percentage of Control) disease level, Phytophthora infestans (Tomatoes) [6, 9] | POCO (Percentage of Control) disease level, Erysiphe graminis tritici (Wheat) [7, 9]
1 | COC=C(C(=O)OC)c1ccccc1COC(=O)Nc1cc(F)ccc1F [27 (1)] | 90+ (90 and 94 = 60.1-100% disease present) | 90 (90 and 94 = 60.1-100% disease present) | 90 (90 and 94 = 60.1-100% disease present) | 90 (90 and 94 = 60.1-100% disease present) | 90 (90 and 94 = 60.1-100% disease present) | 30 (30 = 20.1-30% disease present) | 90 (90 and 94 = 60.1-100% disease present) | 90 (90 and 94 = 60.1-100% disease present) | – | – | – | – | – | – | – | –
2 | CCN(C(=O)OCc1ccccc1C(=COC)C(=O)OC)c1cc(F)ccc1F [27 (3)] | – | – | – | – | – | – | – | – | 0+ (0 = 0% disease present) | 0 (0 = 0% disease present) | 0 (0 = 0% disease present) | 30 (30 = 20.1-30% disease present) | 0 (0 = 0% disease present) | 0 (0 = 0% disease present) | 20 (20 and 24 = 10.1-20% disease present) | 0 (0 = 0% disease present)
3 | COC=C(C(=O)OC)c1ccccc1COC(=O)Nc1ccc(F)c(F)c1 [28 (1)] | 5+ (5 = 3.1-5% disease present) | 30 (30 = 20.1-30% disease present) | 90 (90 and 94 = 60.1-100% disease present) | 30 (30 = 20.1-30% disease present) | 60 (60 = 30.1-60% disease present) | 0 (0 = 0% disease present) | 90 (90 and 94 = 60.1-100% disease present) | 90 (90 and 94 = 60.1-100% disease present) | – | – | – | – | – | – | – | –
4 | COC=C(C(=O)OC)c1ccccc1COC(=O)N(C)c1ccc(F)c(F)c1 [28 (2)] | – | – | – | – | – | – | – | – | 0+ (0 = 0% disease present) | 0 (0 = 0% disease present) | 0 (0 = 0% disease present) | 0 (0 = 0% disease present) | 0 (0 = 0% disease present) | 0 (0 = 0% disease present) | 10 (10 = 5.1-10% disease present) | 0 (0 = 0% disease present)
5 | CCN(C(=O)OCc1ccccc1C(=COC)C(=O)OC)c1ccc(F)c(F)c1 [28 (3)] | – | – | – | – | – | – | – | – | 0+ (0 = 0% disease present) | 0 (0 = 0% disease present) | 0 (0 = 0% disease present) | 0 (0 = 0% disease present) | 0 (0 = 0% disease present) | 1 (1 = 0.1-1% disease present) | 20 (20 and 24 = 10.1-20% disease present) | 0 (0 = 0% disease present)
6 | COC=C(C(=O)OC)c1ccccc1COC(=O)N(C)c1ccccc1C(=O)OC [33 (2)] | – | – | – | – | – | – | – | – | 90+ (90 and 94 = 60.1-100% disease present) | 10 (10 = 5.1-10% disease present) | 60 (60 = 30.1-60% disease present) | 90 (90 and 94 = 60.1-100% disease present) | 60 (60 = 30.1-60% disease present) | 30 (30 = 20.1-30% disease present) | 90 (90 and 94 = 60.1-100% disease present) | 0 (0 = 0% disease present)
7 | COC=C(C(=O)OC)c1ccccc1COC(=O)Nc1ccc(F)c(Cl)c1 [104 (1)] | – | – | – | – | – | – | – | – | 90+ (90 and 94 = 60.1-100% disease present) | 60 (60 = 30.1-60% disease present) | 90 (90 and 94 = 60.1-100% disease present) | 90 (90 and 94 = 60.1-100% disease present) | 90 (90 and 94 = 60.1-100% disease present) | 90 (90 and 94 = 60.1-100% disease present) | 90 (90 and 94 = 60.1-100% disease present) | 90 (90 and 94 = 60.1-100% disease present)
8 | COC=C(C(=O)OC)c1ccccc1COC(=O)N(C)c1ccc(F)c(Cl)c1 [104 (2)] | – | – | – | – | – | – | – | – | 0+ (0 = 0% disease present) | 0 (0 = 0% disease present) | 0 (0 = 0% disease present) | 0 (0 = 0% disease present) | 0 (0 = 0% disease present) | 0 (0 = 0% disease present) | 10 (10 = 5.1-10% disease present) | 0 (0 = 0% disease present)
9 | COC=C(C(=O)OC)c1ccccc1COC(=O)Nc1ccc(F)c([N+](=O)[O-])c1 [105 (1)] | – | – | – | – | – | – | – | – | 90+ (90 and 94 = 60.1-100% disease present) | 90 (90 and 94 = 60.1-100% disease present) | 60 (60 = 30.1-60% disease present) | 90 (90 and 94 = 60.1-100% disease present) | 20 (20 and 24 = 10.1-20% disease present) | 60 (60 = 30.1-60% disease present) | 90 (90 and 94 = 60.1-100% disease present) | 30 (30 = 20.1-30% disease present)
10 | COC=C(C(=O)OC)c1ccccc1COC(=O)N(C)c1ccc(F)c([N+](=O)[O-])c1 [105 (2)] | – | – | – | – | – | – | – | – | 90+ (90 and 94 = 60.1-100% disease present) | 0 (0 = 0% disease present) | 0 (0 = 0% disease present) | 90 (90 and 94 = 60.1-100% disease present) | 10 (10 = 5.1-10% disease present) | 5 (5 = 3.1-5% disease present) | 0 (0 = 0% disease present) | 0 (0 = 0% disease present)
11 | CCN(C(=O)OCc1ccccc1C(=COC)C(=O)OC)c1ccc(F)c([N+](=O)[O-])c1 [105 (3)] | – | – | – | – | – | – | – | – | 90+ (90 and 94 = 60.1-100% disease present) | 0 (0 = 0% disease present) | 20 (20 and 24 = 10.1-20% disease present) | 90 (90 and 94 = 60.1-100% disease present) | 0 (0 = 0% disease present) | 60 (60 = 30.1-60% disease present) | 0 (0 = 0% disease present) | 90 (90 and 94 = 60.1-100% disease present)
